Test results as given in patent publication US20230117034A1, “PYRAZOLOTRIAZINES” (Bayer Aktiengesellschaft, priority 2019, published 2023).
Where two headings read alike, the source gives them in different places.

What was measured:
[1] = target: T1, CDK12 (nuclear staining in CAL-120 cells) (Homo sapiens, UniProt Q9NYV4); test: CDK12 nuclear protein level: immunofluorescence/high content analysis (CAL-120); format: cell-based; conditions: for DC50: CAL-120 cells, 24 h, immunofluorescence, 50% reduction of nuclear CDK12 staining intensity, median, read-out: CDK12 degradation IF, DC50- [mol/l] (median); for (IC50 CDK12 high ATP) to (Degradation DC50 CDK12) ratio: ratio of IC50 CDK12 high ATP kinase assay to DC50 CDK12 degradation (IF, CAL-120)
T1 construct: endogenous in cells; host or cells: CAL-120 human breast cancer cells (DSMZ ACC 459)
T1 sequence (Q9NYV4 whole entry): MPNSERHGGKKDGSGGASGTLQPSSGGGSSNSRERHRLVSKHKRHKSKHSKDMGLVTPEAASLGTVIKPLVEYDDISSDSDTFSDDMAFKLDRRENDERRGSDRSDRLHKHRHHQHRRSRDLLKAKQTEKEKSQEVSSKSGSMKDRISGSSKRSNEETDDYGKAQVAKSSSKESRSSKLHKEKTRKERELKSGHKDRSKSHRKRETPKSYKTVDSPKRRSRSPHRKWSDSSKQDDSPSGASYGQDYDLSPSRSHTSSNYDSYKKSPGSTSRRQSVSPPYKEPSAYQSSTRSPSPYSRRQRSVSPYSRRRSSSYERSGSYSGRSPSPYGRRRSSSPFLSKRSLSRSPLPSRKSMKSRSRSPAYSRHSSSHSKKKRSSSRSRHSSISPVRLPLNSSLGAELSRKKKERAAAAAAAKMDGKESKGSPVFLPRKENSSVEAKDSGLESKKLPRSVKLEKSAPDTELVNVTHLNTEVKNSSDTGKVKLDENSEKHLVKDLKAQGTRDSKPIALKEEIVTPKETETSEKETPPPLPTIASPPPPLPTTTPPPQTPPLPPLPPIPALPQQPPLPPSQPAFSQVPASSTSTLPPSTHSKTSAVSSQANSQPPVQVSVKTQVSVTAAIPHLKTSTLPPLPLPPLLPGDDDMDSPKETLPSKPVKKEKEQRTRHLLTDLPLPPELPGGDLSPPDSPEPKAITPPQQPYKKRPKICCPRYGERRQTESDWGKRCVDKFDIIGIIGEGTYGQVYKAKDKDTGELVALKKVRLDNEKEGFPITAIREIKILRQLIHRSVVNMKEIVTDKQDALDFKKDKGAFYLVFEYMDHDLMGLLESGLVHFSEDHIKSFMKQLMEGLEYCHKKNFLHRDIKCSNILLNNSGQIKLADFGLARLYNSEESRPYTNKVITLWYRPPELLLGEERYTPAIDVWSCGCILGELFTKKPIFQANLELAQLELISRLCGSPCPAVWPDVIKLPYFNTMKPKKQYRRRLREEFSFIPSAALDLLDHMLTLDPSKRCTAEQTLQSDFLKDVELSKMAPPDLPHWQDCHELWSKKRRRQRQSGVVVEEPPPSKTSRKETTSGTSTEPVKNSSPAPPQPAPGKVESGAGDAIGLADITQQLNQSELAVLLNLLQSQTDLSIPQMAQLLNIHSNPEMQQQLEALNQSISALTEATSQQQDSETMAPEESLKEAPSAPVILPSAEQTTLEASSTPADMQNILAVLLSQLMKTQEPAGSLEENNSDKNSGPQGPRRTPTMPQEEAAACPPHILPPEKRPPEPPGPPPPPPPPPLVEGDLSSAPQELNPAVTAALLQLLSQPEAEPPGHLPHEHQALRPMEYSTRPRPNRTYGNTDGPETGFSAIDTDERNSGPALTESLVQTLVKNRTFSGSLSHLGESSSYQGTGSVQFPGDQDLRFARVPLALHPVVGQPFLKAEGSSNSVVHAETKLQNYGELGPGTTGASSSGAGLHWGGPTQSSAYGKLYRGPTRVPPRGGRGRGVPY
T1 sequence (O75909 whole entry partner): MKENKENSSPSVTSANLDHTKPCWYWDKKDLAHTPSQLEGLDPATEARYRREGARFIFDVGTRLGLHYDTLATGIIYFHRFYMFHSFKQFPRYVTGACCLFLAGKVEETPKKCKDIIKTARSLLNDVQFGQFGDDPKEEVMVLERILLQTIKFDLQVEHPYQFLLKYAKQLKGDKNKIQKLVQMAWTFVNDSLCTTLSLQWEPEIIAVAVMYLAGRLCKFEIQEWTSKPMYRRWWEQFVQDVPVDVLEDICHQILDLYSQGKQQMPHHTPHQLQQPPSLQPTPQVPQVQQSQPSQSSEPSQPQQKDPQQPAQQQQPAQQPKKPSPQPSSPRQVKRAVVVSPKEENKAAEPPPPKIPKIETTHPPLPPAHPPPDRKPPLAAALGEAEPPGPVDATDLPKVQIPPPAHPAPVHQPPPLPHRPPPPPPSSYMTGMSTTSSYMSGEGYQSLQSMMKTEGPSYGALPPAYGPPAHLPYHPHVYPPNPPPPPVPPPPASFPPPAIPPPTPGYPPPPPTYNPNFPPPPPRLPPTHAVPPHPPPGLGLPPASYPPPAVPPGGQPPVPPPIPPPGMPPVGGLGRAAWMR
Method in brief: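 CAL-120 cells were treated with compound for 24 h at 37 °C, fixed with PFA and immunostained for CDK12. Nuclear CDK12 intensity was quantified by automated image analysis and normalized to DMSO and control. DC50 is the concentration giving 50% reduction of nuclear staining.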

[2] = target: T2, CDK9/CycT1 (Homo sapiens, UniProt P50750); test: CDK9/CycT1 high ATP kinase assay (TR-FRET, 2 mM ATP); format: biochemical
T2 construct: Recombinant full-length His-tagged human CDK9 and CycT1; purchased Life Technologies PV4131; host or cells: insect cells
T2 sequence (P50750 whole entry): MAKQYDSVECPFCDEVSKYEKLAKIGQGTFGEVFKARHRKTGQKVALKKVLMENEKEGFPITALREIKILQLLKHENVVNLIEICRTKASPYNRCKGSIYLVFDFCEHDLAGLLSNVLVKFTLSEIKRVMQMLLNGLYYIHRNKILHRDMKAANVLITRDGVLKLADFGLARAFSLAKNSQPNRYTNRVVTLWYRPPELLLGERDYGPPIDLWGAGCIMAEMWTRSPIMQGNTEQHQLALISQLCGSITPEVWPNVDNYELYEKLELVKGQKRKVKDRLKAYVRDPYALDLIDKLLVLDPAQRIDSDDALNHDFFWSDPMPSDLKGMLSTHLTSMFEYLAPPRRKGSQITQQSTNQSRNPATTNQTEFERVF
T2 sequence (O60563 whole entry partner): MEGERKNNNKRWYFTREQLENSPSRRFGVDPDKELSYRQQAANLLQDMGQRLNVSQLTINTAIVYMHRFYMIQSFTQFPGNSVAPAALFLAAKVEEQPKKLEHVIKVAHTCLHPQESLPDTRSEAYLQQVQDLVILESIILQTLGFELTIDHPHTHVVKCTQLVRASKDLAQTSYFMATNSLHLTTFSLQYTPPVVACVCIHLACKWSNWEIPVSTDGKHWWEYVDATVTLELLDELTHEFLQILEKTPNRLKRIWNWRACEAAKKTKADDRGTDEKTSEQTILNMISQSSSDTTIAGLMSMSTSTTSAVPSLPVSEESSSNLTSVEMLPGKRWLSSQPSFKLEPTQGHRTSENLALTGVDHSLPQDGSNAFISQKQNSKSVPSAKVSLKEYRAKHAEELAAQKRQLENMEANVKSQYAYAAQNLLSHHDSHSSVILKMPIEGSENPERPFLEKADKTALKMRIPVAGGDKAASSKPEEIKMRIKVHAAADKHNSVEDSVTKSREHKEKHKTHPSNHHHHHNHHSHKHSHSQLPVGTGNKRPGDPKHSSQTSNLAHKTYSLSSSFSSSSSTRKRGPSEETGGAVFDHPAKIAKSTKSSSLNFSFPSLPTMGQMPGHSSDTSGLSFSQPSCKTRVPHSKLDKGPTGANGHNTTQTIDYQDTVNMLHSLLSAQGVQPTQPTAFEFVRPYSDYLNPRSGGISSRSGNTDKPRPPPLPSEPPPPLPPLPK
Method in brief: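 Full-length His-tagged human CDK9/CycT1 (insect cell, ~0.5 μg/mL) preincubated 15 min at 22 °C with compound in Tris pH 8.0, MgCl2, DTT buffer before reaction with biotinylated peptide substrate at high ATP (2 mM).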

[3] = tested on: CAL-120, human breast adenocarcinoma cells; test: Proliferation assay CAL-120 (crystal violet, 4 days); format: cell-based; conditions: Homo sapiens, CAL-120 cells, median, read-out: Prolif-CAL-120, IC50-[mol/l] (median)
Method in brief: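 CAL-120 or MDA-MB-231 cells grown 24 h, then exposed 4 days to compound (0.01–10 micromol/L, 0.1% DMSO). Crystal violet staining, absorbance at 595 nm, normalised to a zero-point plate (0%) and untreated cells (100%); IC50 by 4-parameter fit.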

[4] = 2 mM ATP (high ATP), median, read-out: CDK9/CyclinT1, 2 mM ATP (high ATP), IC50 (median)

Compound | DC50 [1] [nM] | (IC50 CDK12 high ATP) to (Degradation DC50 CDK12) ratio [1] | IC50 [2, 4] [nM] | IC50 ([3]; CAL-120, 96 h) [nM] | IC50 [2] [nM] | IC50 ([3]; 96 h) [nM]
Fc1cc2nc(CNc3nc(N4CC5CCC(C4)N5)nc4c(Br)cnn34)[nH]c2cc1F [Example 355, 8-bromo-2-(3,8-diazabicyclo[3.2.1]octan-3-yl)-N-[(5,6-difluoro-1H-benzimidazol-2-yl)methyl]pyrazolo[1,5-a][1,3,5]triazin-4-amine] | 23.5 | 178 | > 20000 | 2.2 |  | 
CN(CC(C)(C)O)c1nc(NCc2nc3cc(F)c(Cl)cc3[nH]2)n2ncc(Br)c2n1 [Example 338, 1-[(8-bromo-4-{[(6-chloro-5-fluoro-1H-benzimidazol-2-yl)methyl]amino}pyrazolo[1,5-a][1,3,5]triazin-2-yl)(methyl)amino]-2-methylpropan-2-ol] | 0.894 | 1320 | 8300 | 1.93 |  | 
Fc1ccc(-c2nnc(CNc3nc(N4CCOCC4)nc4c(Br)cnn34)[nH]2)cc1 [Example 29, 8-bromo-N-{[5-(4-fluorophenyl)-4H-1,2,4-triazol-3-yl]methyl}-2-(morpholin-4-yl)pyrazolo[1,5-a][1,3,5]triazin-4-amine] | 11.8 | 310 | 2400 | 170 |  | 
CN1C2CCC1CN(c1nc(NCc3nc4c(F)c(F)ccc4[nH]3)n3ncc(C(F)(F)F)c3n1)C2 [Example 356, N-[(4,5-difluoro-1H-benzimidazol-2-yl)methyl]-2-(8-methyl-3,8-diazabicyclo[3.2.1]octan-3-yl)-8-(trifluoromethyl)pyrazolo[1,5-a][1,3,5]triazin-4-amine] | 6.68 | 734 | > 20000 | 2.1 |  | 
Clc1cc2nc(CNc3nc(N4CC5CCC(C4)N5)nc4c(C5CC5)cnn34)[nH]c2cc1Cl [Example 324, 8-cyclopropyl-2-(3,8-diazabicyclo[3.2.1]octan-3-yl)-N-[(5,6-dichloro-1H-benzimidazol-2-yl)methyl]pyrazolo[1,5-a][1,3,5]triazin-4-amine] | 18 | 48 | 12300 | 1.17 |  | 
CC(C)c1cnn2c(NCc3ncc(-c4ccccc4)[nH]3)nc(N3CCN(C)CC3)nc12 [Example 31, 2-(4-methylpiperazin-1-yl)-N-[(5-phenyl-1H-imidazol-2-yl)methyl]-8-(propan-2-yl)pyrazolo[1,5-a][1,3,5]triazin-4-amine] | 19.7 | 689 | > 20000 | 21 |  | 
CN(CC(C)(C)O)c1nc(NCc2nc3cc(C(F)(F)F)ccc3[nH]2)n2ncc(Br)c2n1 [Example 345, 1-{[8-bromo-4-({[5-(trifluoromethyl)-1H-benzimidazol-2-yl]methyl}amino)pyrazolo[1,5-a][1,3,5]triazin-2-yl](methyl)amino}-2-methylpropan-2-ol] | 3.98 | 166 | 6240 | 3.05 |  | 
Cc1cc2nc(CNc3nc(N4CC5CCC(C4)N5)nc4c(C5CC5)cnn34)[nH]c2cc1C [Example 326, 8-cyclopropyl-2-(3,8-diazabicyclo[3.2.1]octan-3-yl)-N-[(5,6-dimethyl-1H-benzimidazol-2-yl)methyl]pyrazolo[1,5-a][1,5]triazin-4-amine] | 4.77 | 198 | 17000 | 1.25 |  | 
Fc1cccc2[nH]c(CNc3nc(N4CC5CCC(C4)N5)nc4c(Cl)cnn34)nc12 [Example 363, 8-chloro-2-(3,8-diazabicyclo[3.2.1]octan-3-yl)-N-[(4-fluoro-1H-benzimidazol-2-yl)methyl]pyrazolo[1,5-a][1,3,5]triazin-4-amine] | 11.9 | 279 | > 20000 | 7.26 |  | 
Fc1cc2nc(CNc3nc(N4CC5CCC(C4)N5)nc4c(Br)cnn34)[nH]c2cc1Cl [Example 348, 8-bromo-N-[(6-chloro-5-fluoro-1H-benzimidazol-2-yl)methyl]-2-(3,8-diazabicyclo[3.2.1]octan-3-yl)pyrazolo[1,5-a][1,3,5]triazin-4-amine] | 5.3 | 546 |  |  | 14000 | 1.14
CN(CC(C)(C)O)c1nc(NCc2nc3cc(Cl)c(Cl)cc3[nH]2)n2ncc(Br)c2n1 [Example 331, 1-[(8-bromo-4-{[(5,6-dichloro-1H-benzimidazol-2-yl)methyl]amino}pyrazolo[1,5-a][1,3,5]triazin-2-yl)(methyl)amino]-2-methylpropan-2-ol] | 6 | 58 | 4900 | 3.08 |  | 
CN1CCC(Oc2nc(NCc3nc4ccccc4[nH]3)n3ncc(Br)c3n2)CC1 [Example 389, N-[(1H-benzimidazol-2-yl)methyl]-8-bromo-2-[(1-methylpiperidin-4-yl)oxy]pyrazolo[1,5-a][1,3,5]triazin-4-amine] | 33.5 | >597 | > 20000 | 52.7 |  | 

Further lines, with some results ahead:

DC50 [1] [nM] | (IC50 CDK12 high ATP) to (Degradation DC50 CDK12) ratio [1] | IC50 [2, 4] [nM] | IC50 ([3]; CAL-120, 96 h) [nM] | Compound | IC50 [2] [nM] | IC50 ([3]; 96 h) [nM]
2.12 | 3129 | > 20000 | 1.52 | Cc1cc2nc(CNc3nc(N4CCN(C)CC4)nc4c(Br)cnn34)[nH]c2cc1C [Example 342, 8-bromo-N-[(5,6-dimethyl-1H-benzimidazol-2-yl)methyl]-2-(4-methylpiperazin-1-yl)pyrazolo[1,5-a][1,3,5]triazin-4-amine] |  | 
1.12 | 2719 | 14400 | 1.93 | CN1CCN(c2nc(NCc3nc4c(F)c(Cl)ccc4[nH]3)n3ncc(Br)c3n2)CC1 [Example 373, 8-bromo-N-[(5-chloro-4-fluoro-1H-benzimidazol-2-yl)methyl]-2-(4-methylpiperazin-1-yl)pyrazolo[1,5-a][1,3,5]triazin-4-amine] |  | 
6.69 | 1251 | > 20000 | 2.7 | CN1CCN(c2nc(NCc3nc4cc(C(F)(F)F)ccc4[nH]3)n3ncc(Br)c3n2)CC1 [Example 344, 8-bromo-2-(4-methylpiperazin-1-yl)-N-{[5-(trifluoromethyl)-1H-benzimidazol-2-yl]methyl}pyrazolo[1,5-a][1,3,5]triazin-4-amine] |  | 
1.81 | 85 | 1640 | 2.8 | CN(CC(C)(C)O)c1nc(NCc2nc3c(F)c(Cl)ccc3[nH]2)n2ncc(Br)c2n1 [Example 374, 1-[(8-bromo-4-{[(5-chloro-4-fluoro-1H-benzimidazol-2-yl)methyl]amino}pyrazolo[1,5-a][1,3,5]triazin-2-yl)(methyl)amino]-2-methylpropan-2-ol] |  | 
4.16 | 1263 | > 20000 | 3.9 | CN1CCN(c2nc(NCc3nc4c(F)c(Cl)ccc4[nH]3)n3ncc(C4CC4)c3n2)CC1 [Example 371, N-[(5-chloro-4-fluoro-1H-benzimidazol-2-yl)methyl]-8-cyclopropyl-2-(4-methylpiperazin-1-yl)pyrazolo[1,5-a][1,3,5]triazin-4-amine] |  | 
7.85 | 1673 | > 20000 | 8.15 | CN1CCN(c2nc(NCc3nc4c(F)cccc4[nH]3)n3ncc(Cl)c3n2)CC1.O=CO [Example 362, formic acid 8-chloro-N-[(4-fluoro-1H-benzimidazol-2-yl)methyl]-2-(4-methylpiperazin-1-yl)pyrazolo[1,5-a][1,3,5]triazin-4-amine] |  | 
1.85 | 4722 | > 20000 | 2.04 | CN1CCN(c2nc(NCc3nc4cc(F)c(Cl)cc4[nH]3)n3ncc(Br)c3n2)CC1 [Example 337, 8-bromo-N-[(6-chloro-5-fluoro-1H-benzimidazol-2-yl)methyl]-2-(4-methylpiperazin-1-yl)pyrazolo[1,5-a][1,3,5]triazin-4-amine] |  | 
3.55 | 624 | 17400 | < 0.1 | Fc1cc2nc(CNc3nc(N4CCOCC4)nc4c(Br)cnn34)[nH]c2cc1F [Example 341, 8-bromo-N-[(5,6-difluoro-1H-benzimidazol-2-yl)methyl]-2-(morpholin-4-yl)pyrazolo[1,5-a][1,3,5]triazin-4-amine] |  | 
3.83 | 61 | 5930 | 4.95 | CN(CC(C)(C)O)c1nc(NCc2nc3c(F)c(Cl)ccc3[nH]2)n2ncc(C3CC3)c2n1 [Example 387, 1-[(4-{[(5-chloro-4-fluoro-1H-benzimidazol-2-yl)methyl]amino}-8-cyclopropylpyrazolo[1,5-a][1,3,5]triazin-2-yl)(methyl)amino]-2-methylpropan-2-ol] |  | 
